Our source for the TGI and GI50 values is PubChem BioAssay (NCI).

Common to all, as to test: NCI anticancer screen, dose series, 48 h
In experiment [1] the test system is A549 NSCLC.
The subject of experiment [2] is LOX IMVI melanoma.
For experiment [3], the system named is SK-OV-3 ovarian.
Experiment [4] relates to OVCAR-3 ovarian.
The test system of experiment [5] is U251 CNS.
In experiment [6] the test system is 786-0 renal.
Experiment [7] deals with UACC-62 melanoma.
Experiment [8] relates to SK-MEL-28 melanoma.
Experiment [9] deals with SR leukemia.
For experiment [10], the system named is SN12C renal.
In experiment [11] the test system is MDA-N.
Experiment [12] relates to HL-60(TB) leukemia.

Values joined by “and” are separate entries in the source; they are usually repeats but may differ in a detail not shown here. Identical values can stand only once.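 1) Cells in 96-well plates. 2) Compound, 48 h, 5 concentrations. 3) Linear interpolation between surrounding doses. 4) Unreached endpoint = highest concentration. GI50 is the concentration that inhibits growth by half. The concentration for full growth arrest is given as TGI.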

For the compound `COc1cc2c(cc1OC)C(=O)C(C1=C(SC(=N)N)C(=O)c3cc(OC)c(OC)cc31)C2` (centres undefined), the TGI in experiment [1], in experiment [2], in experiment [3], in experiment [4], in experiment [5] and in experiment [6] was above 100 µM in each case. Further, the TGI in experiment [7], in experiment [8], in experiment [9] and in experiment [10] was above 100 µM in each case.

On to `CCS(=O)(=O)CCn1cnc2c1c(=O)n(C)c(=O)n2C`, for which the TGI in experiment [1], in [2], in [4], in [5], in experiment [6] and in [7] was above 100 µM in each case. For the same compound, the TGI in [8], in [11], in [12] and in experiment [10] was above 100 µM in each case.

On to `C=CCN(C)CN(C)c1nc(N(C)C)nc(N(C)C)n1`, for which the TGI in experiment [1], in [2], in experiment [3], in experiment [4], in [5] and in [6] was above 100 µM each time. The TGI was above 100 µM in experiment [7]; above 100 µM in experiment [8]; above 100 µM in [9]; 48.7 µM in experiment [12]; above 100 µM in experiment [10].

Turning to `Cn1c2cc(O)cc(O)c2c(=O)c2c([N+](=O)[O-])cccc21`, the TGI in experiment [1], in experiment [2], in experiment [3], in [4], in experiment [5] and in experiment [6] was above 100 µM each time. For the same compound, the TGI in experiment [7], in [8], in experiment [9], in experiment [12] and in experiment [10] was above 100 µM each time.

For the compound `Cc1c2c(n(CCN(C)C)c1C)NN=C(C#N)S2(=O)=O`, the TGI in [1], in experiment [2], in [3], in experiment [4], in experiment [5] and in experiment [6] was above 100 µM in each case. Besides, the TGI in experiment [7], in [8], in experiment [11] and in experiment [10] was above 100 µM in each case.

With `Clc1nc2n(c1/C=C/c1cccs1)CCS2`, the TGI in experiment [1] is above 100 µM; in [3], 95.8 µM; in experiment [4], 87.9 µM; in experiment [5], above 100 µM; in experiment [6], 95.5 µM; in experiment [7] it was above 100 µM. In addition, the TGI in experiment [8], in experiment [11], in experiment [12] and in experiment [10] was above 100 µM in each case.

For the compound `O=c1cc(-c2ccccc2)oc2cc(OCCSCCCCCCCCCCSCCOc3ccc4c(=O)cc(-c5ccccc5)oc4c3)ccc12`, the TGI in experiment [1], in [2], in [3], in experiment [4], in [5] and in experiment [6] was above 100 µM throughout. In addition, the TGI in [7], in [8], in [9], in experiment [12] and in [10] was above 100 µM in each case.

With `Cn1c2c(c3ccccc31)CC(=S)N1CCCC(CC2O)C1` (centres undefined), the TGI in experiment [1], in [2], in experiment [3], in experiment [5], in [6] and in [7] was above 100 µM each time. For the same compound, the TGI in [8], in [11] and in experiment [10] was above 100 µM throughout.

As to `Cc1ccsc1/C=N/Nc1nncc2ccccc12`, the TGI in [1], in experiment [2], in experiment [3], in experiment [4], in experiment [5] and in [6] was above 100 µM each time. The TGI in experiment [7], in experiment [8], in experiment [11] and in experiment [10] was above 100 µM each time.

As to `Nc1nc(Cl)c2nnn(CC3CCC(CO)C3)c2n1` (centres undefined), the TGI in experiment [1], in [2], in experiment [3], in experiment [4], in experiment [5] and in experiment [6] was above 100 µM each time. The TGI in [7], in experiment [8], in experiment [11] and in [10] was above 100 µM each time.

Take `O=C(c1cccc(C(=O)c2ccc3c4c(cccc24)C(=O)N(c2ccccc2)C3=O)c1)c1ccc2c3c(cccc13)C(=O)N(c1ccccc1)C2=O`: the TGI in [1], in experiment [2], in experiment [3], in experiment [4], in experiment [5] and in experiment [6] was above 100 µM throughout. In addition, the TGI in experiment [7], in experiment [8], in experiment [11] and in [10] was above 100 µM each time.

On to `C/C(=C\c1ccc(Cl)c(Cl)c1)[N+](=O)[O-]`, for which the TGI in experiment [1] is 3.41 µM and 4.52 µM; in experiment [2] it was 2.62 µM and 0.955 µM; in experiment [3] it was 29.8 µM; in [4], 3.08 µM and 3.47 µM; in experiment [5], 2.71 µM; in experiment [6], 3.18 µM. Further, the TGI in [7] is 3.51 µM and 4.8 µM; in experiment [8] it was 3.14 µM and 4.81 µM; in experiment [9], 11.4 µM and 6.68 µM; in [12] it was 6.02 µM and 5.95 µM; in experiment [10], 4.08 µM. Moreover, the GI50 in [2] is 1.19 µM; in experiment [3] it was 16.3 µM; in experiment [7] it was 1.74 µM; in experiment [8], 1.75 µM; in experiment [9], 2.38 µM; in [12], 1.94 µM.
